From PubChem BioAssay AID179 (DTP/NCI, 2004)
Activity calls are given as the source filed them.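 How the source made its calls: active means compounds giving half or more protection of infected cells from virus-caused growth loss, again on retest; inactive means the rest.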 Where a SMILES comes first, the peptide text is derived from it. [ ]: non-standard residue; d: D form. The star is where a group is joined. ξ: configuration not given here. NMeF = CN[C@@H](Cc1ccccc1)C(=O)O; NMeV = CN[C@H](C(=O)O)C(C)C; ξNMeN = CNC(CC(N)=O)C(=O)O; NMeA = CN[C@@H](C)C(=O)O; ξNMeV = CNC(C(=O)O)C(C)C; Boc = CC(C)(C)OC(=O)*; Bz = O=C(c1ccccc1)*; Bn = c1ccc(C*)cc1; ξC = NC(CS)C(=O)O

Test system: CEM cells HIV-1 protection, formazan growth assay
Test: NCI AIDS Antiviral Assay
Settings: for IC50: measured here: growth of uninfected CEM cells
Summary of the method: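 Screen of anti-HIV-1 activity in human CEM cells using a formazan-based growth measurement at five drug concentrations. Hits with 50% or greater protection were repeated, and confirmation required reproducible complete protection.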

Row | SMILES | EC50 [µM] | IC50 [µM] | outcome
1 | CN(C)CCN(C(=Nc1ccccc1)N1CCCC1)c1ccccc1 | > 200 | 8.32 | 
2 | COc1ccc2c(NCCCCCCNc3c4ccccc4nc4cc(OC)ccc34)c3ccccc3nc2c1 |  |  | inactive
3 | C[N+](C)(C)CC1CCCc2ccccc2C1=O (stereo unspecified) |  |  | inactive
4 | Cc1ccc(/C=C/C(=O)C(C)C)cc1 | > 200 | 70.8 | 
5 | CC1c2ccccc2NC(=O)N1N1CCOCC1 (stereo unspecified) | > 200 | > 200 | 
6 | CNC(=O)CN(CC(=O)NC)C(=O)NC | > 120 | > 120 | 
7 | CC(NC(=O)C(=O)N/N=C1\CC(c2ccccc2)Sc2ccccc21)c1ccccc1 (stereo unspecified) |  |  | inactive
8 | CC(C)C1CC=CCC12C(=O)NC(=O)NC2=O (stereo unspecified) | > 1050 | 955 | 
9 | O=C(Nc1cc(Cl)c(Cl)cc1NC(=O)C(Cl)(Cl)Cl)C(Cl)(Cl)Cl | > 200 | 0.417 | 
10 | CC(=O)C1=C(C)N2C(=NC3=C(CCc4ccccc43)C2c2cccc(Br)c2)S1 (stereo unspecified) | > 200 | 81.3 | 
11 | COC(=O)C(CSCc1ccccc1)NC(=O)CNC(=O)c1ccccc1 (stereo unspecified) (Bz-Gly-[ξC](Bn)-OMe) | > 245 | 219 | 
12 | CC(C)(O)CCCC1CCC2C3CCC4CCCCC4(C)C3CCC2(C)C1O (stereo unspecified) | > 200 | 9.33 | 
13 | Cc1cn(CC2(CO)CCC2)c(=O)[nH]c1=O | > 200 | > 200 | 
14 | CC(C)CCCC(C)[C@H]1CC[C@H]2[C@@H]3CC[C@H]4C[C@@H](CCC=C(c5cc(Cl)c(OC(=O)C(C)(C)C)c(C(=O)O)c5)c5cc(Cl)c(OC(=O)C(C)(C)C)c(C(=O)O)c5)CC[C@]4(C)[C@H]3CC[C@]12C (stereo partly specified) | 75.9 | > 100 | 
15 | COc1cc2c(cc1OC)C(=O)N1CCCC1C(=O)S2 (stereo unspecified) |  |  | inactive
16 | COC(=O)[C@H](C)N(C)C(=O)C(CC(N)=O)N(C)C(=O)[C@H](Cc1ccccc1)N(C)C(=O)[C@@H]1CCCN1C(=O)[C@H](C(C)C)N(C)C(=O)C(C(C)C)N(C)C(=O)[C@@H](NC(=O)OC(C)(C)C)C(C)C (stereo partly specified) (Boc-V[ξNMeV][NMeV]P[NMeF][ξNMeN][NMeA]-OMe) | > 53.7 | 50.1 | 
17 | C=C(C)C(=O)O[C@H]1[C@H]2[C@H](OC(=O)[C@H]2C)[C@H](O)[C@@H](C)[C@@H]2C=CC(=O)[C@]21C | > 363 | 1.91 | 
18 | COC(=O)c1cc(OC)c(OC)c(OC)c1-c1cc2c(cc1C=O)OCO2 | > 132 | 120 | 
19 | CO/C(=N\N=C\c1ccc(Cl)cc1)c1ccncc1 | > 200 | > 200 | 
20 | CN1C(=O)c2cnc3ccccc3c2C1(O)c1ccccc1 (stereo unspecified) | > 200 | > 200 | 
21 | CSC(=Nc1ccc([N+](=O)[O-])cc1C#N)NC(=O)c1ccccc1 |  |  | inactive

Row | SMILES | EC50 [µM] | IC50 [µM] | outcome
22 | COc1ncc(C#CC(=O)c2ccccc2)c(OC)n1 | > 2 | 0.331 | 
23 | CCOC(=O)C(C)c1nc2ccc(C(F)(F)F)cc2[nH]c1=O (stereo unspecified) | > 200 | 110 | 
24 | COc1ccc(/C=C2\C(=O)N(C(=O)Cc3ccccc3)N=C2C)cc1OC | > 51.3 | > 51.3 | 
25 | COc1c(Cl)cc(Cc2cc(C(=CCC[C@H]3CC[C@@]4(C)[C@@H](CC[C@@H]5[C@@H]4CC[C@]4(C)[C@@H](C(C)CCCC(C)C)CC[C@@H]54)C3)c3cc(Cc4cc(Cl)c(OC)c(C(=O)O)c4)c(OC)c(C(=O)O)c3)cc(C(=O)O)c2OC)cc1C(=O)O (stereo partly specified) | 16.2 | 107 | 
26 | CCN(CC)CC(=O)NC1c2ccccc2Oc2ccccc21 | > 219 | > 219 | 
27 | Cc1cn(C(C)OCCN2C(=O)c3ccccc3C2=O)c(=O)[nH]c1=O (stereo unspecified) | > 200 | > 200 | 
28 | CC(C)c1cc(C(=O)[O-])c(O)c(C(C)C)c1.CC(C)c1cc(C(=O)[O-])c(O)c(C(C)C)c1.CC(C)c1cc(C(=O)[O-])c(O)c(C(C)C)c1.CC(C)c1cc(C(=O)[O-])c(O)c(C(C)C)c1.CC(C)c1cc(C(=O)[O-])c(O)c(C(C)C)c1.CC(C)c1cc(C(=O)[O-])c(O)c(C(C)C)c1.[Cu+2].[Mn+2].[Mn+2] | > 21.4 | 10.7 | 
29 | COc1ccc(NC(=O)C(=O)NO)c(OC)c1 | > 537 | 234 | 
30 | CC1=CC(C)C(=O)N(CC(C)N2CCCC2)C(C)=C1 (stereo unspecified) | > 191 | 74.1 | 
31 | O=C(Nc1ccc(Cl)c(Cl)c1)NC(CO)(CO)CO | > 200 | 110 | 
32 | COC(=O)CCc1ccc2c(c1)CC1(Cc3ccccc3C1)C2 | > 200 | 107 | 
33 | O=C(/C=C/c1ccccc1)c1ccc(Cl)cc1Cl | > 2.69 | > 2.69 | 
34 | COc1cc(C(O)c2ccc3c(c2)OCO3)cc(OC)c1OC (stereo unspecified) | > 200 | 87.1 | 
35 | CN(C)CCC=C1c2ccccc2C(C)(C)c2ccccc21 | > 141 | 25.1 | 
36 | O=C1c2ccccc2CCC1C(O)(C(F)(F)F)C(F)(F)F (stereo unspecified) | > 200 | > 200 | 
37 | O=C1C(=O)c2ccccc2C(O)=C1C(C1=C(O)c2ccccc2C(=O)C1=O)c1ccccc1 | > 200 | 20.9 | 
38 | Cc1ccc(-n2c(C)n[nH]c2=O)cc1 | > 200 | > 200 | 
39 | Cc1ccccc1NC(=O)C(=O)CC(=O)c1sc(Nc2ccccc2[N+](=O)[O-])nc1C | > 200 | > 200 | 
40 | Cc1cccc(C)c1NC(=O)CN(CC(C)C)CC(O)COc1ccccc1 (stereo unspecified) | > 200 | 27.5 | 
41 | O=S(=O)(O)c1cccc(N=Nc2ccc(N=Nc3ccc(Nc4ccccc4)c4c(S(=O)(=O)O)cccc34)c3ccccc23)c1 | 155 | > 200 | 
42 | Cc1noc2c1N=C(c1cccs1)CC(c1c(Cl)cccc1Cl)C2 (stereo unspecified) | > 19.1 | > 19.1 | 

Row | SMILES | EC50 [µM] | IC50 [µM] | outcome
43 | N#CC12CC3=C(N=C1NC1=C(CCc4ccccc41)C2)c1ccccc1CC3 (stereo unspecified) | > 200 | 3.02 | 
44 | Clc1ccccc1CN1COc2c(cc(Cl)c3cccnc23)C1 | > 87.1 | 4.57 | 
45 | N#C/C=C/c1ccc2ccccc2c1 | > 40.7 | > 40.7 | 
46 | Cc1cc(O)ccc1C1(c2ccc(F)cc2)OC(=O)c2ccccc21 (stereo unspecified) |  |  | inactive
47 | CSCCC(NC(c1ccccc1)c1ccccc1)[P+](=O)O (stereo unspecified) | > 200 | > 200 | 
48 | CCOC(=O)/C(C#N)=C\C=C1/C=CNC2=NCCN21 | 19.5 | 24.5 | 
49 | CN(CC1=C(O)C(=O)C(CN(C)Cc2c(O)ccc3ccccc23)=C(O)C1=O)Cc1c(O)ccc2ccccc12 | > 17.4 | > 17.4 | 
50 | Cc1ccc(-c2csc(=Nc3ccccc3)n2NC(=O)c2ccncc2)cc1 | > 200 | 22.9 | 
51 | COc1ccc(N[C@H]([C@@H](c2ccccc2)S(=O)c2ccc(C)cc2)C(F)(F)F)cc1 (stereo partly specified) | > 200 | 34.7 | 
52 | O=C1C(=O)N(C(=O)c2ccc(Cl)c(Cl)c2)c2ccccc21 |  |  | inactive
53 | O=C1NC(c2ccccc2)C1N(Cc1ccccc1)Cc1ccccc1 (stereo unspecified) | > 200 | > 200 | 
54 | O=c1[nH]n(CCc2ccncc2)c(=O)c2ccccc12 | > 200 | > 200 | 
55 | CC(=O)OCC1OC(N2C(=O)NC(=O)C3C=C4CCCCC4=CC32)CC1OC(C)=O (stereo unspecified) | > 200 | 117 | 
56 | CNC(=O)C1CCCN1C(=O)C(Cc1cnc[nH]1)NC(=O)C1CCC(=O)N1 (stereo unspecified) | > 200 | > 200 | 
57 | C/C(=N\NC(=O)CC#N)C(CN1CCCCC1)C(c1ccccc1)c1c(O)c2ccccc2oc1=O (stereo unspecified) | > 70.8 | 40.7 | 
58 | NC(=O)N/N=C1/CCN2CCCc3cccc1c32 | > 200 | > 200 | 
59 | CN(C)c1ccc2c(c1)C(=O)N(OS(=O)(=O)c1ccc([N+](=O)[O-])cc1)C2=O | > 47.9 | 20.4 | 
60 | C[C@@H]1C(O)CC[C@H](C)C12CC=CC2=O (stereo partly specified) | > 200 | > 200 | 
61 | O=C(/C=C/c1ccc(OCCSCCCCCCCCCCSCCOc2ccc(/C=C/C(=O)c3ccc(Cl)cc3)cc2)cc1)c1ccc(Cl)cc1 | > 12.9 | 12 | 
62 | CCOC(=O)C1(C(=O)OCC)OC(=O)NC2=C1CCCC2 | > 832 | 145 | 
63 | CC1NCCc2c1[nH]c1cc(O)ccc21 (stereo unspecified) | > 1050 | 158 | 

Row | SMILES | EC50 [µM] | IC50 [µM] | outcome
64 | COc1cc(COC(=O)N2CSCC2C(=O)O)c([N+](=O)[O-])cc1OC (stereo unspecified) | > 676 | > 676 | 
65 | Cc1ccc(NC(=O)c2cnccn2)c(=O)o1 | > 200 | > 200 | 
66 | O=C(O)c1cc(O)c(O)c(O)c1 | > 200 | 11 | 
67 | CCCCCCCCCCCCCCCc1ccc(OCC(O)CO)cc1 (stereo unspecified) | > 19.1 | > 19.1 | 
68 | CC1=[N+]([O-])C(C)(C)N(O)C1(C)C | > 200 | > 200 | 
69 | Cc1cc2nc3c(C#N)c(C)c(CCCl)c(Cl)n3c2cc1C | > 200 | 3.31 | 
70 | C=C1CC(C)(COc2ccc3c(C)cc(=O)oc3c2)OC1=O (stereo unspecified) | > 20 | 0.501 | 
71 | Cc1ccc(S(=O)(=O)N(CCN)c2cc3c4c(c2)Oc2cccc5c2C4c2c(cccc2O3)O5)cc1 | > 200 | 35.5 | 
72 | CC1(O)Cc2c(O)c3c(c(O)c2CC1O)C(=O)C=CC3=O (stereo unspecified) | > 12.9 | 1.32 | 
73 | CCC(C)[C@H](NC(=O)N[C@H](C)c1ccccc1)C(=O)OC (stereo partly specified) | > 200 | > 200 | 
74 | CCCCCCCCCCCCCCCC(=O)Nc1ccn(C2CCC(COP(=O)(O)OCC3CCC(n4cnc5c(=O)[nH]cnc54)O3)O2)c(=O)n1 (stereo unspecified) | 0.759 | > 100 | 
75 | COC(=O)CC[N+]1([O-])CC1 | > 200 | > 200 | 
76 | COC(=O)CCCc1c(-c2[nH]c3ccccc3c2CCCC(=O)OC)[nH]c2ccccc12 | > 200 | > 200 | 
77 | NC(=O)CNC(=O)[C@@H]1C[C@@H](OCCC(=O)O)CN1C(=O)OCc1ccccc1 | > 200 | > 200 | 
78 | COC1CCC(=O)N1CCn1c(SCc2ccccc2)nc2ccccc21 (stereo unspecified) | > 93.3 | > 93.3 | 
79 | Cc1cc(NC[C@H](O)[C@H](O)[C@H](O)CO)c(Sc2cc(=O)[nH]c(=O)[nH]2)cc1C |  |  | inactive
80 | O=C(CCc1ccccc1)On1nnc2ccccc2c1=O |  |  | inactive
81 | O=C(/C=C/c1cc(Cl)cc(Cl)c1O)c1cccc(O)c1 |  |  | inactive
82 | COC(=O)[C@@H](NC(=O)N(CCC#N)CCNc1ccccc1)C(C)C | > 200 | > 200 | 
83 | CSC1=N/C(=C\c2ccco2)C(=O)N1CN1CCOCC1 | > 200 | 39.8 | 
